From patent US20240391931A1 (Bristol-Myers Squibb Company, priority 2021, published 2024) come the findings set out here.

Assay [1] concerns the target T1, HER2 wildtype (WT) protein (Homo sapiens, UniProt P04626).
T1 construct: BT474 and N87 cell lines which endogenously overexpress the HER2 wildtype (WT) protein; endogenous in cells; host or cells: BT474, N87
Description: HER2 signaling (pHER2 Tyr1248/total HER2 MSD) in N87 cells. As to conditions: 1.5 hr compound, 1% FBS. It counts as cell-based. The procedure: (§1) In addition to the engineered cell lines, the following cell lines were used: BT474 (human breast carcinoma), N87 (human gastric carcinoma), NCI-H1781 (human lung adenocarcinoma), and A431 (human epidermoid carcinoma); all cell lines were obtained from the American Type Culture Collection (ATCC, Manassas, VA). NCI-H1781 were grown in complete RPMI 1640 (Life Technologies, Carlsbad, CA) supplemented with 15% fetal bovine serum (FBS, Life Technologies, Carlsbad, CA) and 1% Penicillin-Streptomycin (P/S, Life Technologies, Carlsbad, CA). N87 cells were grown in complete RPMI 1640 supplemented with 10% FBS and 1% P/S. BT474 and A431 cells were grown in DMEM (Life Technologies, Carlsbad, CA) supplemented with 10% FBS and 1% P/S. All cells were maintained and propagated in a humidified 5% CO2 incubator at 37° C.
(§2) HER2 signaling was assessed in BT474 and N87 cell lines which endogenously overexpress the HER2 wildtype (WT) protein, in NCI-H1781 cells which endogenously expresses a HER2 mutant protein containing a VC insertion in the kinase domain (HER2VC or G776delinsVC), and in engineered cell lines transduced to express the Her2 mutant protein containing the YVMA insertion (Hek293-HER2YVMA and BEAS2B-HER2YVMA).
(§3) BT474, N87, and NCI-H1781 were plated in 96-well tissue-culture treated plates (Corning Costar, Sigma-Aldrich) in full media and incubated overnight. Hek293-HER2YVMA and BEAS2B-HER2YVMA cells were plated in 96-well poly-D-lysine treated plates (BD Bioscience, San Jose, CA). For treatment with test compounds, the media was replaced with corresponding low serum media (1% FBS) containing test compound at 1.1, 0.37, 0.12, 0.041, 0.014, 0.005, 0.0014, 0.0005 μM or DMSO control (0.1%). Cells were incubated with compound for 1.5 hr at 37° C. After compound treatment, the media was removed and cells were lysed for 30 min on ice in complete MSD lysis buffer (prepared using MSD base lysis buffer (Meso-Scale Discovery) supplemented with cOmplete, EDTA-free Protease inhibitor cocktail (Roche), Phosphatase Inhibitor Cocktails 2 and 3 (Sigma-Aldrich), and 1 mM PMSF (Sigma-Aldrich)). Lysates were stored at −70° C. until further analysis.
(§4) HER2 signaling was evaluated using phospho (Tyr1248)/total ErbB2 whole cell lysate MSD plates (Meso-Scale Discovery, Gaithersburg, MD). The phospho HER2 signal was normalized to total HER2 for each sample; results are reported as % DMSO control. The normalized data was fitted using a sigmoidal curve analysis program (Graph Pad Prism version 6) with variable Hill slope to determine EC50 values.
(§5) The HER2 signaling results are provided in Table 4, under columns titled “BT474-pHER2 EC50”, “N87-pHER2 EC50”, and “NCI-H1781-pHER2 EC50”. Hek293-HER2YVMA ins fall under the heading “HEKYVMA-pHER2 EC50”, Ba/F3 HER2YVMA fall under the heading “Ba/F3 YVMA-pHER2 EC50” and BEAS2B-HER2YVMA fall under the heading “BEAS2B YVMA-pHER2 EC50”.

In assay [2] the test system is NCI-H1781 cells. Description: Cellular proliferation in NCI-H1781 cells (CellTiter Glo). It counts as cell-based, human. Conditions: 120 h, redosed after 72 h. The procedure: as §1
(§6) Cell proliferation in adherent cells was investigated in two HER2 amplified cell lines (BT474, N87), and a HER2VC expressing cell line (NCI-H1781). BT474, NCI-H1781, and N87 were plated in their appropriate growth media supplemented with either 10% FBS (BT474, N87) or 15% FBS (NCI-H1781) and 1% P/S in 96-well white clear-bottom tissue culture plates (Costar, Sigma-Aldrich). The starting cell densities were 3500, 5500, and 5000 cells for BT474, NCI-H1781, and N87 cells, respectively. An 8-point standard curve with varying cell densities (starting at 50000 cells and serially diluting down 2-fold) was prepared for each cell line and read 6 h after plating. Cells were allowed to attach overnight prior to compound treatment. Compound solutions were prepared by serially diluting test compounds in DMSO (Sigma-Aldrich), then diluting 500× in their corresponding serum free media. Cells were treated by adding a 1:1 volume of test compound to a final concentration of […], 0.004, 0.0014, or 0.0005 μM, in 0.1% DMSO and 5% FBS (for BT474 and N87) or 7.5% FBS (NCI-H1781). In BT474 and NCI-H1781, cell media was replaced and cells were redosed with fresh test compound solutions after 72 h. Viability was determined by CellTiter Glo (Promega, Madison, WI) after 72 h for N87 cells, and after 120 h for BT474 and […] cells. The results were converted to cell numbers using a standard curve; growth inhibition (GI50 values) were determined by Graph Pad Prism. […] The results are provided in Table 4, under columns titled “BT474-GI50”, “N87-GI50”, and “NCI-H1781-GI50”.

Assay [3] concerns the target T2, HER2VC (G776delinsVC) (Homo sapiens, UniProt P04626, G776C/INS775V).
T2 construct: NCI-H1781 cells which endogenously expresses a HER2 mutant protein; endogenous in cells; host or cells: NCI-H1781
The experiment in a line: HER2 signaling (pHER2) in NCI-H1781 cells. As to conditions: 1.5 hr compound, 1% FBS. It counts as cell-based. The procedure: as §1, §2, §3, §4, §5

In assay [4] the test system is N87 cells. Description: Cellular proliferation in N87 cells (CellTiter Glo). It counts as cell-based, human. Conditions: 72 h. The procedure: as §1, §6
Assay [5] relates to BT474 cells. Description: Cellular proliferation in BT474 cells (CellTiter Glo). It counts as cell-based, human. Conditions: 120 h, redosed after 72 h. The procedure:
as §1, §6

Setting [6] is: Homo sapiens, BT-474, BT474 cells.
Where [7] appears, read: Homo sapiens, NCI-H1781, NCI-H1781 cells.

Structures can show the parent of a compound that is named as a salt.

T2 sequence (P04626 with tags, fused parts or gaps INS775V/G776C): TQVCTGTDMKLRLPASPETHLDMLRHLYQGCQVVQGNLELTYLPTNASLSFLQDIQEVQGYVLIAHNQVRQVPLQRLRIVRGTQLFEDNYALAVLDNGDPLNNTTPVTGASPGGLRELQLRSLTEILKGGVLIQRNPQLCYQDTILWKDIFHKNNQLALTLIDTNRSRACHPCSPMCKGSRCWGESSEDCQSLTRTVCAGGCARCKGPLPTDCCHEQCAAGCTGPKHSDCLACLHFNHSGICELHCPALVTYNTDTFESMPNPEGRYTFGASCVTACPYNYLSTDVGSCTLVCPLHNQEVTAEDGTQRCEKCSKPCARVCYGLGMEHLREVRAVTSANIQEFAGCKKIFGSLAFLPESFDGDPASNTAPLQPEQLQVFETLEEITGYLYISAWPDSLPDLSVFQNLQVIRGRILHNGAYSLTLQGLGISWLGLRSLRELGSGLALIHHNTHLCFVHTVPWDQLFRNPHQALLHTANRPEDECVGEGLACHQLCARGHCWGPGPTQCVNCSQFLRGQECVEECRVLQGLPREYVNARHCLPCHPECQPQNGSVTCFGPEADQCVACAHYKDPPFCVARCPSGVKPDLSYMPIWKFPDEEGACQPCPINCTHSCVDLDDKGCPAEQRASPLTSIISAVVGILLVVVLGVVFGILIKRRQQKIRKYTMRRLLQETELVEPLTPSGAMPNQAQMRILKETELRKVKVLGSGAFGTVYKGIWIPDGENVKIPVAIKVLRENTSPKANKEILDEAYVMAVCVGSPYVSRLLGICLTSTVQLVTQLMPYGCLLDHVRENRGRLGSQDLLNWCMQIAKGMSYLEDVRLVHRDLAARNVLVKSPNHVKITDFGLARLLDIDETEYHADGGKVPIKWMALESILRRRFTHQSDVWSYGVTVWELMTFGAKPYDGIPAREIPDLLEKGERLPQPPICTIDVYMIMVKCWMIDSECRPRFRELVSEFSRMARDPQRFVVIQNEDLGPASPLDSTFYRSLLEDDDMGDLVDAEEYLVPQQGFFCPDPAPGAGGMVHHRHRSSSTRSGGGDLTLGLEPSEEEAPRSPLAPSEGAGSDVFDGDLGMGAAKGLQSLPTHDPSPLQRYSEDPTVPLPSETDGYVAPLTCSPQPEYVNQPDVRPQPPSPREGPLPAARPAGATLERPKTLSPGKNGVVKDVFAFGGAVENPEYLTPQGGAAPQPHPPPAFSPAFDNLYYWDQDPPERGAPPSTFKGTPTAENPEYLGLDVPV
T1 sequence (P04626 23-1255): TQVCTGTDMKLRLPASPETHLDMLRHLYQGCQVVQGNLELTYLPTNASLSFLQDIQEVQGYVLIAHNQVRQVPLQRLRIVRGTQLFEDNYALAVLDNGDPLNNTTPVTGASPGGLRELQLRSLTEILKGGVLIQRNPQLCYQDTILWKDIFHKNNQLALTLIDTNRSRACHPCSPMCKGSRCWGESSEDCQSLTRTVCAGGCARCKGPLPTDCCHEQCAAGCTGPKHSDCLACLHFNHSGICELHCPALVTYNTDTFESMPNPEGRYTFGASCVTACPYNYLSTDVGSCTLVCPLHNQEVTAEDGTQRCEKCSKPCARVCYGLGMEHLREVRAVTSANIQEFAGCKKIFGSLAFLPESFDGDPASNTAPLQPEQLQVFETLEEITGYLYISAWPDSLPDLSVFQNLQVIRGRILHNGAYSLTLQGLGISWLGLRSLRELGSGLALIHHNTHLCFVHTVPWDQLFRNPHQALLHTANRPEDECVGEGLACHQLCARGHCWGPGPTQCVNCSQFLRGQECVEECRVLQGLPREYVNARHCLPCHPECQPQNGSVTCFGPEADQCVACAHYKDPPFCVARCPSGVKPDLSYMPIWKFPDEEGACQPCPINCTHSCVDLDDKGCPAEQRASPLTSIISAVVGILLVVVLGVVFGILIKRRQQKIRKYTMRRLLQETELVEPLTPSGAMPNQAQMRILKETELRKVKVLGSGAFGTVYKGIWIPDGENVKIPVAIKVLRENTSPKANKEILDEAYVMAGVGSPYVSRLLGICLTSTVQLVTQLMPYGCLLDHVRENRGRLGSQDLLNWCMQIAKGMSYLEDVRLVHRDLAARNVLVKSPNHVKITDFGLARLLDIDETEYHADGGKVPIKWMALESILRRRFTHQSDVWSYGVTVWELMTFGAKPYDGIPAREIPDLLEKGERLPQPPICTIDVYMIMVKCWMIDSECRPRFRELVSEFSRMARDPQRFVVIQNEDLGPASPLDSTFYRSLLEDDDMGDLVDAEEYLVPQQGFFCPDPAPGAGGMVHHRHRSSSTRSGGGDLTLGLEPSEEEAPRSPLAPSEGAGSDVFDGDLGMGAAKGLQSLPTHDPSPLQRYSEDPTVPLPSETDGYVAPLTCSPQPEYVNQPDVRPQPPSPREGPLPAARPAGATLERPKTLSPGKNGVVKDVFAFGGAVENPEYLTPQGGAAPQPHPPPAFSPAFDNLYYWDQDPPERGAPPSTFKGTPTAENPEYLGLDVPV

`Cc1ccc(Oc2ccc(Nc3ncnc4sc5c(c34)CCN(C(=O)/C=C/CN3CC4CC(C3)O4)C5)cc2C)cn1` [Compound 15] came in with an EC50 in assay [1] of less than 100 nM.
On the same count and under the same terms, the same measure for `Cc1cc(Nc2ncnc3sc4c(c23)CCN(C(=O)/C=C/CN2CCOCC2)C4)ccc1Oc1ccc2ncnn2c1` [Compound 12]: less than 100 nM.
As for `Cc1cc(Nc2ncnc3sc4c(c23)CCN(C(=O)/C=C/CN(C)C)C4)ccc1Oc1ccc(N(C)C)nc1` [Compound 158, (E)-4-(dimethylamino)-1-(4-((4-((6-(dimethylamino)pyridin-3-yl)oxy)-3-methylphenyl)amino)-5,8-dihydropyrido[4′,3′:4,5]thieno[2,3-d]pyrimidin-7(6H)-yl)but-2-en-1-one], the GI50 is less than 100 nM in assay [2] (Homo sapiens, NCI-H1781 cells); less than 100 nM in assay [4] (Homo sapiens); less than 100 nM in assay [5] (setting [6]). This molecule showed an EC50 in assay [3] of less than 100 nM.
Molecule `C=CC(=O)N1CCc2c(sc3ncnc(Nc4ccc(Oc5cccnc5)c(Cl)c4)c23)C1` [Compound 6, 1-(4-((3-chloro-4-(pyridin-3-yloxy)phenyl)amino)-5,8-dihydropyrido[4′,3′:4,5]thieno[2,3-d]pyrimidin-7(6H)-yl)prop-2-en-1-one] gave an EC50 in assay [3] of less than 100 nM.
As to `COc1ccc(Oc2ccc(Nc3ncnc4sc5c(c34)CN(C(=O)/C=C/CN(C)C)C5)cc2C)cn1` [Compound 128, (E)-4-(dimethylamino)-1-(4-((4-((6-methoxypyridin-3-yl)oxy)-3-methylphenyl)amino)-5,7-dihydro-6H-pyrrolo[3′,4′:4,5]thieno[2,3-d]pyrimidin-6-yl)but-2-en-1-one], the GI50 in assay [2] (setting [7]), in assay [4] (Homo sapiens) and in assay [5] (setting [6]) was less than 100 nM each time. In addition, the EC50 is 100 to 350 nM in assay [3] and less than 100 nM in assay [1].
With `COc1ccc(Oc2ccc(Nc3ncnc4sc5c(c34)C(C)CN(C(=O)/C=C/CN(C)C)C5)cc2C)cn1` (stereo not shown) [Compound 152, (E)-4-(dimethylamino)-1-(4-((4-((6-methoxypyridin-3-yl)oxy)-3-methylphenyl)amino)-5-methyl-5,8-dihydropyrido[4′,3′:4,5]thieno[2,3-d]pyrimidin-7(6H)-yl)but-2-en-1-one], the GI50 in assay [2] (setting [7]), in assay [4] (Homo sapiens) and in assay [5] (setting [6]) was less than 100 nM throughout. Also, the EC50 in assay [3] was less than 100 nM.
With `Cc1ccc(Oc2ccc(Nc3ncnc4sc5c(c34)CCN(C(=O)/C=C/CN3CC4CCC3C4)C5)cc2C)cn1` (stereo not shown) [Compound 14], the EC50 in assay [1] was less than 100 nM.
For `Cc1ccc(Oc2ccc(Nc3ncnc4sc5c(c34)CN(C(=O)C=CCN(C)C)C5C)cc2C)cn1` (single isomer, unassigned) [Compound 170], the GI50 in assay [2] (NCI-H1781 cells) was 350 to 1000 nM; in assay [4], 100 to 350 nM; in assay [5] (BT474 cells), 100 to 350 nM. This molecule displayed an EC50 in assay [3] of 100 to 350 nM.
Consider `COc1ccc(Oc2ccc(Nc3ncnc4sc5c(c34)CCN(C(=O)/C=C/CN3CCOCC3)C5)cc2C)cn1` [Compound 164], for which the GI50 in assay [2] (setting [7]) was 100 to 350 nM; in assay [4] (Homo sapiens) it was less than 100 nM; in assay [5] (setting [6]), less than 100 nM. This molecule also had an EC50 in assay [3] of less than 100 nM.
Turning to `Cc1ccc(Oc2ccc(Nc3ncnc4sc5c(c34)C(C)CN(C(=O)/C=C/CN3CCOCC3)C5)cc2C)cn1` (stereo not shown) [Compound 174, (E)-1-(5-Methyl-4-((3-methyl-4-((6-methylpyridin-3-yl)oxy)phenyl)amino)-5,6-dihydropyrido[4′,3′:4,5]thieno[2,3-d]pyrimidin-7(8H)-yl)-4-morpholinobut-2-en-1-one], the GI50 is 100 to 350 nM in assay [2] (setting [7]) and less than 100 nM in assay [4] (Homo sapiens). Moreover, the EC50 in assay [3] was less than 100 nM.
Take `Cc1ccc(Oc2ccc(Nc3ncnc4sc5c(c34)CN(C(=O)C=CCN(C)C)C5C)cc2C)cn1` (single isomer, unassigned) [Compound 169]: the GI50 in assay [2] (NCI-H1781 cells), in assay [4] (Homo sapiens) and in assay [5] (setting [6]) was less than 100 nM in each case. Also, the EC50 in assay [3] and in assay [1] was less than 100 nM in each case.
For `Cc1ccc(Oc2ccc(Nc3ncnc4sc5c(c34)C(C)CN(C(=O)C=CCN3CCOCC3)C5)cc2C)cn1` (single isomer, unassigned) [Compound 177], the EC50 in assay [3] and in assay [1] was less than 100 nM in each case.
In assay [3], `COc1cc(Nc2ncnc3sc4c(c23)CCN(C(=O)/C=C/CN(C)C)C4)ccc1Oc1ccccc1` [Compound 7, (E)-4-(dimethylamino)-1-(4-((3-methoxy-4-phenoxyphenyl)amino)-5,8-dihydropyrido[4′,3′:4,5]thieno[2,3-d]pyrimidin-7(6H)-yl)but-2-en-1-one] returned an EC50 of less than 100 nM.
As to `Cc1ccc(Oc2ccc(Nc3ncnc4sc5c(c34)CC(C)N(C(=O)C=CCN(C)C)C5C)cc2C)cn1` (single isomer, unassigned) [Compound 161], the EC50 in assay [1] is less than 100 nM.
Still for that read-out and setting: the same measure for `C=CC(=O)N1[C@H](C)Cc2c(sc3ncnc(Nc4ccc(Oc5ccc(C)nc5)c(C)c4)c23)[C@H]1C` (racemic) [Compound 166, 1-(6,8-trans-dimethyl-4-((3-methyl-4-((6-methylpyridin-3-yl)oxy)phenyl)amino)-5,8-dihydropyrido[4′,3′:4,5]thieno[2,3-d]pyrimidin-7(6H)-yl)prop-2-en-1-one]: less than 100 nM; for `Cc1ccc(Oc2ccc(Nc3ncnc4sc5c(c34)CCN(C(=O)/C=C/CN3CC4CCC(C4)C3)C5)cc2C)cn1` [Compound 16, (E)-4-(3-azabicyclo[3.2.1]octan-3-yl)-1-(4-((3-methyl-4-((6-methylpyridin-3-yl)oxy)phenyl)amino)-5,8-dihydropyrido[4′,3′:4,5]thieno[2,3-d]pyrimidin-7(6H)-yl)but-2-en-1-one benzenesulfonate salt]: less than 100 nM.
`Cc1ccc(Oc2ccc(Nc3ncnc4sc5c(c34)CC(C)N(C(=O)C=CCN(C)C)C5C)cc2C)cn1` (single isomer, unassigned) [Compound 162] registered an EC50 in assay [1] of 350 to 1000 nM.
